# Columns and labels:
# Type in all cases: in vivo, human
# GH = assay: 24-h mean GH levels, blood sampled every 10 minutes for 24 hours, chemiluminescence assay, 2-year placebo-controlled trial; details: for 24-h mean GH, mean (range) fold-change / 24-h mean GH level in a person: 25 mg p.o. daily; for 24-h mean GH, mean (range) fold-change: N=43, ratio of geometric means; for 24-h mean GH level in a person: baseline 0.37
# Method: Sixty-five healthy men and women (±HRT) ages 60-81 years were enrolled in a 2-year study of MK-677 (25 mg p.o. daily) or placebo. In addition to GH and IGF-I, the primary endpoints were fat-free mass (FFM), by 4-compartment model and DXA, and abdominal visceral fat (AVF) by CT. Secondary endpoints included isokinetic strength, function and quality of life (QoL); all endpoints were assessed at baseline and every 6 months, with frequent monitoring for adverse effects.
# This NIH-funded study was approved by the General Clinical Research Center (GCRC) and the University of Virginia Institutional Review Boards. All subjects gave written informed consent. A two-year, double-blind, placebo-controlled modified crossover trial of once-daily administration of an oral GH secretogogue (MK-677, 25 mg) to healthy older adults was performed.
# During the first year, subjects were randomized to MK-677 or placebo treatment. In each of 3 groups (23 men, 25 women on hormone replacement therapy (HRT) and 17 women not on HRT), ⅔ received MK-677 and ⅓ received placebo. At the end of year 1, the subjects who received placebo were switched to MK-677 treatment (N= 2/0 in year 2); subjects who received MK-677 for the first year were randomized to continue MK-677 (N=20) or to placebo (N=19).
# Growth hormone (GH) concentrations and pulsatile characteristics. Blood samples were obtained every 10 minutes for 24 hours for measurement of GH in a sensitive chemiluminescence assay (2); endogenous GH secretory dynamics were assessed using an automated multiple-parameter deconvolution method as previously reported (1;3).
# The primary outcome data for the 6- and 12-month changes in FFM and AVF as well as for IGF-I and GH were analyzed via repeated measures ANCOVA. The FFM and AVF data were analyzed on the same scale as they were measured, while the IGF-I and GH data were transformed to the natural logarithmic scale before conducting the statistical analyses so that the variance and normality assumptions of the linear model were not violated.
# Since the FFM and AVF data were analyzed on the same scale as initially measured, the 6- and 12-month changes are reported as a difference between arithmetic means; changes in IGF-I and GH data analyzed on the natural algorithmic scale are reported as a ratio of geometric means.
# [1] = Glucose metabolism: insulin sensitivity by Quicki, hemoglobin A1c
# Method: Assays and Insulin Sensitivity. Plasma glucose was measured on a Beckman analyzer and insulin and total IGF-I were measured in the GCRC Core Laboratory on an Immulite 2000 (Diagnostic Products Corporation, Los Angeles, Calif.). Additional safety laboratory tests were performed by standard methods in the UVA Clinical Laboratories. Fasting insulin and glucose were used to estimate insulin sensitivity by the Quicki method (4).
# (§1) In each of the 2 years, volunteers were seen monthly the first 3 months and every 3 months thereafter for a physical examination, documentation of medications and vital signs, routine laboratory tests and detailed questioning about possible side effects. Fasting blood glucose and hemoglobin Alc (HBAlc) were monitored for possible changes with MK-677 treatment, since increased blood glucose had been observed in previous studies (11;15).
# [2] = Monitoring for adverse effects, PSA, mammograms, pap smears, routine laboratory tests
# Method: Healthy men and women 60 years and older were eligible to participate. A schematic of the study design and details of subject inclusion/exclusion criteria, screening, enrollment, and attrition are shown in FIG. 1. Volunteers were carefully screened by medical history and physical examination to rule out underlying disease and extensive laboratory testing was performed before and frequently throughout the study. Participants were asked to maintain their typical diet and exercise throughout the study and to report any illnesses, medical procedures or side effects. Annual mammograms and pap smears were performed in women and levels of prostate-specific antigen (PSA) were monitored in men.
# as §1
smiles,measurement,setting,value
"CC(C)(N)C(=O)N[C@H](COCc1ccccc1)C(=O)N1CCC2(CC1)CN(S(C)(=O)=O)c1ccccc12.CS(=O)(=O)O [MK-677, N-[1(R)-[(1,2-dihydro-1-methanesulfonylspiro[3H-indole-3,4′-piperidin]-1′-yl)carbonyl]-2-(phenylmethyloxy)ethyl]-2-amino-2-methylpropanamide methanesulfonate]","24-h mean GH, mean (range) fold-change",GH; 6 months,1.9 (1.6-2.2) fold
same,24-h mean GH level in a person,GH; 6 months,1.0 µg/L
same,"24-h mean GH, mean (range) fold-change",GH; 12 months,1.8 (1.6-2.0) fold
same,24-h mean GH level in a person,GH; 12 months,0.86 µg/L
same,Deconvolution analysis of the increase in GH,GH; secretion per peak vs. peak frequency,increased secretion per peak
same,Insulin resistance estimated by Quicki,"[1]; after 6 and 12 months of treatment, vs. placebo",increased significantly
same,hemoglobin A1c levels,[1]; most subjects on MK-677,slight elevations
same,serious side effects,[2]; daily treatment,without serious side effects
same,"mammograms, pap smears, routine laboratory tests",[2]; during the 2 years of the study,no changes
same,time for appetite to return to normal,[2]; in about one-half the subjects,≤ 3 months
same,PSA levels,[2]; men,declined significantly
same,"transient muscle pain, subjects reporting",[2]; placebo 2/22,14/43
same,"mild, transient edema, subjects reporting",[2]; placebo 6/22,19/43
same,"increase in appetite, subjects reporting",[2]; placebo 8/22,29/43
same,"Joint pain, subjects reporting",[2]; placebo 17/22,25/43
